Measured values from patent publication US9522125B1, “Method of treating cancer” (Macau University of Science and Technology, priority 2015, dated 2016).

Legend:
ROS1 kinase = ROS1 kinase (Homo sapiens, UniProt P08922); assay: In vitro ROS1 enzymatic assay (LanthaScreen Eu kinase binding assay); details: room temperature, 1 hour
Method: 1.2 In Vitro ROS1 Enzymatic Assay
LanthaScreen® Eu kinase binding assay was used to determine the changes in kinase activity, which is an assay based on the binding and displacement property of the kinase with substrate. Briefly, the assay was performed at room temperature for 1 hour in a total volume of 15 μL, including 5 μL of test compound, 5 μL of kinase/antibody mixture and 5 μL of tracer. The signal of the 384-well plate was then measured at the end of the reactions.

HCC78 cells [1] = assay: MTT cytotoxicity assay on HCC78 cells; type: cell-based; details: Homo sapiens, 72 h treatment
Method: HCC78 cell line was purchased from the American Type Culture Collection (ATCC) (Manassas, Va., USA). Cells were cultured in RPMI-1640 medium containing 10% fetal bovine serum (FBS), 100 units/mL penicillin, and 100 μg/mL streptomycin under a humidified atmosphere of 5% CO2 at 37° C. Mitoxantrone was dissolved in DMSO.
(§1) 1.3 MTT Cytotoxicity Assay
(§2) 3000 cells were seeded on 96-well plates, then the plates were cultured overnight for cell adhesion, and treated with DMSO or various concentrations of mitoxantrone for 72 h. 10 μL of MTT (5 mg/mL; Sigma) was added in each well, and incubation was continued for another 4 hours, then the dark blue crystals were dissolved in 100 μL resolved solution (10% SDS and 0.1 mM HCL). Finally, the absorbance was measured at 570 nm by a microplate reader (Tecan, Morrisville, N.C., USA). The cell viability was calculated relative to untreated controls, and results were presented based on at least 3 independent experiments.

CCD19-Lu cells = assay: MTT cytotoxicity assay on normal lung cells CCD19-Lu; type: cell-based; details: 72 h treatment
Method: as §1, §2

HCC78 cells [2] = assay: Apoptosis analysis (morphology; Annexin-V FITC/PI flow cytometry) in HCC78 cells; type: cell-based
Method: HCC78 cells were seeded on a 6-well plate, and were allowed to attach overnight. The cells were treated with a dilution series of mitoxantrone for 48 h, collected by trypsin and washed twice with ice-cold PBS, and then resuspended in 100 μl 1× binding buffer. 2 μL Annexin-V FITC and 4 μL PI (100 μg/ml) were added to the solution and mixed well. After incubation for 15 min in the dark at room temperature, 400 μL of 1× binding buffer was added to each tube, where apoptosis level was then quantitatively analyzed using a FACSAria III Flow Cytometer (BD Biosciences, San Jose, Calif., USA).

ROS1 phosphorylation = assay: Western blot analysis of ROS1 phosphorylation and downstream signaling in HCC78 cells; type: cell-based; details: 48 h, 5 nM, 10 nM and 20 nM
Method: 1.5 Western Blot Analysis
After cells were plated on 6-well plates overnight, a wide concentrations of mitoxantrone were administered for 48 h. Cells were washed twice with cold PBS and then lysed in RIPA lysis buffer containing protease and phosphatase inhibitors, and protein concentration of the cell lysates were measured using the Bio-Rad protein Assay kit (Bio-Rad, Philadelphia, Pa., USA). After equalizing the protein concentrations of the samples, 5× laemmli buffer was added and boiled at 100° C. for 5 min. Equal amounts of protein samples (30 μg) were subjected to SDS-PAGE and separated with a 10% gel; then the separated proteins were transferred to a Nitrocellulose (NC) membrane, which was then exposed to 5% non-fat dried milk in TBS containing 0.1% Tween 20 (0.1% TBST) for 1 h at room temperature, followed by overnight incubation at 4° C. with primary anti-bodies (1:1000 dilutions). After being washed 3 times by TBST, the membranes were incubated with secondary fluorescent antibodies (1:10000 dilutions) to rabbit or mouse, the signal intensity of the membranes was detected by an LI-COR Odessy scanner (Belfast, Me., USA). Antibodies against GAPDH, p-AKT, p-ROS1, ROS1, p-ERK, ERK, p-STAT3, STAT3 were purchased from Cell signaling Technology. Anti-AKT antibody was acquired from Santa Cruz Biotechnology.

Sequence of ROS1 kinase (P08922 28-2347): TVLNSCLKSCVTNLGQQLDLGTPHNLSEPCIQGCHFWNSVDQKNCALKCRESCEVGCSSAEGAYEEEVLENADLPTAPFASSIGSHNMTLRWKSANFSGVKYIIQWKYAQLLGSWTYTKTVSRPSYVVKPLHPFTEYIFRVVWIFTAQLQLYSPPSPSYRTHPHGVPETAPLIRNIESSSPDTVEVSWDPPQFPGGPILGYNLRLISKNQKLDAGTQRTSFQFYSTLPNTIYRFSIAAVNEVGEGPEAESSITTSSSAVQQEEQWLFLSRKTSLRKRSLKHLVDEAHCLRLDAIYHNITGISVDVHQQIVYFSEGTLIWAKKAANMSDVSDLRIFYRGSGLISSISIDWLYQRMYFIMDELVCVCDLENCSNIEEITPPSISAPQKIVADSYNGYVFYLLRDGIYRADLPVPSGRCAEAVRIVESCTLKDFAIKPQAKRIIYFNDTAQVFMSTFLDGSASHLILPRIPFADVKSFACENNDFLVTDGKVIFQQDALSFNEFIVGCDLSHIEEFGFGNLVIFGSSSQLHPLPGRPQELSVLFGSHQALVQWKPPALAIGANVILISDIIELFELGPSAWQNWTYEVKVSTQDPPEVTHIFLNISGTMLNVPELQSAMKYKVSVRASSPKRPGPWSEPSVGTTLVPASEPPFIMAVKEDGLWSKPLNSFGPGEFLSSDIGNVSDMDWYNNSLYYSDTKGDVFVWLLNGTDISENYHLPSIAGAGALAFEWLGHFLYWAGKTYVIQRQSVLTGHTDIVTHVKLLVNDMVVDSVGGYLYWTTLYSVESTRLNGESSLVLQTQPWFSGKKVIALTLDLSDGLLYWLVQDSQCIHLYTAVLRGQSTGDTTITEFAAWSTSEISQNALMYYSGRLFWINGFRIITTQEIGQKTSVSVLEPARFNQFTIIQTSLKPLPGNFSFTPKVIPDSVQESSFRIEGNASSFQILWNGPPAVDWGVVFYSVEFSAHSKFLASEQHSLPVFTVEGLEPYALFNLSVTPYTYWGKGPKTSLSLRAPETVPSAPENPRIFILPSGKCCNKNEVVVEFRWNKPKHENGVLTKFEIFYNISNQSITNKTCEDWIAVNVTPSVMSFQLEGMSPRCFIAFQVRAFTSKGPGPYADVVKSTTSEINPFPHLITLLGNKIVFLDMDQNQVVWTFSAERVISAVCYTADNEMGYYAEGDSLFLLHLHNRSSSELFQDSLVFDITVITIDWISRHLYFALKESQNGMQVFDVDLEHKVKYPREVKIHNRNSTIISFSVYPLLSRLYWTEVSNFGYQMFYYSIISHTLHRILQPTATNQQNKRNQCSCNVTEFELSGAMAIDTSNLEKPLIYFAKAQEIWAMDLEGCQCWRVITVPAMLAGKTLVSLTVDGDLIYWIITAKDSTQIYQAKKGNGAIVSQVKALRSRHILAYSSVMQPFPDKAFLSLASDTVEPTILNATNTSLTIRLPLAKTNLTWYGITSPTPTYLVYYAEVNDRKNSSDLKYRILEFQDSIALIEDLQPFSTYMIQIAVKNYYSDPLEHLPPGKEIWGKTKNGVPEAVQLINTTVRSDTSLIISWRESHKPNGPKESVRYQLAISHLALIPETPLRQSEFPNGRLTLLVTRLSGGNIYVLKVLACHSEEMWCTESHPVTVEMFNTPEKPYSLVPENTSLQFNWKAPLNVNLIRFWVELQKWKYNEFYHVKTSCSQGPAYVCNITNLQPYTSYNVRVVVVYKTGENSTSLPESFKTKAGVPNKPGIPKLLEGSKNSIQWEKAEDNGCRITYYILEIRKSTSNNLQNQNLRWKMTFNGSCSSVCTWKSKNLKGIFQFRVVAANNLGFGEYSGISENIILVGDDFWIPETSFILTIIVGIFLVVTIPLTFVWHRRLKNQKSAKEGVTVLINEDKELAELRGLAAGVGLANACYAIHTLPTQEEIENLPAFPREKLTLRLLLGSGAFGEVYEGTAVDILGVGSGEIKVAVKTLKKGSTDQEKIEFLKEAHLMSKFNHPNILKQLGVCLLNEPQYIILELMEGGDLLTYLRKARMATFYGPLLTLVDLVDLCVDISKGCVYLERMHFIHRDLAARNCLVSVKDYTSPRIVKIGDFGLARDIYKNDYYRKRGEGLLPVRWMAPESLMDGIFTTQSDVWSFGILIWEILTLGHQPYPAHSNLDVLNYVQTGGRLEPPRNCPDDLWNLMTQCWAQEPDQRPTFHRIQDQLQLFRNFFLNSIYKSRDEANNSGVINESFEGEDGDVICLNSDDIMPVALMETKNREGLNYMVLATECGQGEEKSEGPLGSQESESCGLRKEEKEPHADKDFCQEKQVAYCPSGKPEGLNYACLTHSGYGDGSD

With `O=C1c2c(O)ccc(O)c2C(=O)c2c(NCCNCCO)ccc(NCCNCCO)c21` [Mitoxantrone, mitoxantrone] the IC50 (ROS1 kinase) was 36 nM, the IC50 (HCC78 cells [1]) was 13.8 ± 2.49 nM and the “fold of IC50 in CCD19-Lu over IC50 on HCC78” value (CCD19-Lu cells) was “at least 11.6 fold”. The IC50 (CCD19-Lu cells; Homo sapiens, CCD 19Lu, CCD19-Lu normal lung cells) was greater than 160 nM, the “induction of apoptosis (flow cytometry)” value (HCC78 cells [2]; 48 h, 5 nM, 10 nM and 20 nM, compared with the control group) was “induced significant apoptosis levels” and the “concentration from which cells detached and became smaller (morphological indication of apoptosis)” value (HCC78 cells [2]; FIG. 4) was no less than 10 nM. For the same molecule, the “ROS1 phosphorylation and downstream signaling molecules Erk1/2, STAT3 and AKT (western blot)” value (ROS1 phosphorylation) was “dose-dependent decrease”.
